Assay results as given in patent publication US20250333377A1, “SOLID FORM OF NAPHTHYLAMINE MITOPHAGY INDUCER, AND PREPARATION METHOD THEREFOR, PHARMACEUTICAL COMPOSITION THEREOF AND USE THEREOF” (HANGZHOU PHECDAMED CO., LTD., priority 2023, published 2025).

Key:
[1] = Crystal form conversion (heat treatment, suspension competition test, DSC analysis); type: physicochemical
From the text: The mutual conversion relationship among the A, B, C, D crystal forms of the sodium salt is further studied in this embodiment by heat treatment under nitrogen protection and suspension competition test.
However, the methods of heating, suspension pulping as well as grinding can not study the thermodynamic conversion relationship between crystal form A and crystal form D. In order to further study the thermodynamic conversion relationship of crystal form A and crystal form D, analyzed from the DSC pattern, the DSC of crystal form A is shown in FIG. 2, and the DSC of crystal form D is shown in FIG. 11, the melting point of crystal form A is higher than that of crystal form D, whereas the enthalpy of melting of crystal form A is much lower than that of crystal form D. It may be judged from the thermodynamic stability relationship table that if TA>TD, ΔHf, A>ΔHf, D, crystal form A and D is a univariate relationship, crystal form A is stable, if TA>TD, ΔHf, A<ΔHf, D, crystal forms A and D are reciprocal relationships, if the temperature is higher than the transcrystallization temperature, crystal form A is stable, and if the temperature is lower than the transcrystallization temperature, crystal form D is stable.

Mcl-1 protein = Mcl-1 protein (Homo sapiens, UniProt Q07820); test: Affinity test of recombinant Mcl-1 protein (SPR, Biacore); type: binding
From the text: The binding affinity of the sodium salt D crystal form of TJ01-013 to the Mcl-1 protein is studied by an in vitro Surface Plasmon Resonance (SPR) test, using a Biacore analyzer and measuring with a CM5 chip being coupled to the protein.

[2] = tested on: renal ischemia-reperfusion (I/R) model of SD rats; test: Acute kidney injury model caused by unilateral renal ischemia and reperfusion in rats; type: in vivo
Protocol: The pharmacodynamic effects of the D crystal form of TJ01-013 are studied in a renal ischemia-reperfusion (I/R) model of SD rats. Each group has twelve male rats of 280-300 g. They are administered by gavage once a day for 3 consecutive days. Three dose groups are divided into 3 mg/kg, 10 mg/kg and 30 mg/kg. The sham group and model control group were administered by equal volumes of 0.5% CMC-Na, and left renal artery ligation is performed 1 h after administration on the fourth day, and right nephrectomy is performed after 45 min of ischemia and before reperfusion, and then administered every day until 3 d after administration. The endpoint of the experiment is 3 d after administration.

[3] = 3 mg/kg, 10 mg/kg, and 30 mg/kg, P<0.05-0.001
[4] = 10 mg/kg and 30 mg/kg, versus model control, P<0.001

Chain of Mcl-1 protein (Q07820 whole entry, species assumed): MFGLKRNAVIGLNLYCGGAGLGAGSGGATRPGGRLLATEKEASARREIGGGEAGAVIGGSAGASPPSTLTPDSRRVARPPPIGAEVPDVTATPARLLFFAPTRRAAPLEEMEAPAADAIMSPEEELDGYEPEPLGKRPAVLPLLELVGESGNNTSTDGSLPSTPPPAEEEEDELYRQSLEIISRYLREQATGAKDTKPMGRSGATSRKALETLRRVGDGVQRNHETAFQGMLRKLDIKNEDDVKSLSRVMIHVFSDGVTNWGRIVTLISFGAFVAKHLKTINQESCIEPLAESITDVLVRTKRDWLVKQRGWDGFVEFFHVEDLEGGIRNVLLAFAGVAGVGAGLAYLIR

O=C(O)C[S+]([O-])c1cc(NS(=O)(=O)c2ccc(Br)cc2)c2ccccc2c1O (stereo not drawn) [Embodiment 4]
Crystal form conversion / relative stability in suspension competition test ([1]; equal amounts mixed, RT/50, magnetic stirring ~1000 rpm, about 20 hours, listed as crystal form D): more stable than crystal form B, C
Thermodynamic stability of crystal form A versus crystal form D ([1]; judged from DSC data (Tables 9-10)): more stable at lower temperatures
Kd (Mcl-1 protein; CM5 chip coupled to the protein, read-out: Affinity constant KD): 1.12 µM
kon (Mcl-1 protein; CM5 chip, read-out: Binding constant ka): 1090 M⁻¹ s⁻¹
Remarks (kind of binding) (Mcl-1 protein; listed as TJ0113): specific
Remarks (kind of binding) (Mcl-1 protein; listed as sodium salt D crystal form of TJ01-013): can bind specifically to Mcl-1 protein
Creatinine clearance rate ([2]; 3 mg/kg, 10 mg/kg and 30 mg/kg, versus model control): different degrees of improvement
Expression level of inflammatory factor IL-1p in renal tissues [2, 3]: significantly decreased
Expression level of inflammatory factor IL-6 in renal tissues [2, 3]: significantly decreased
Urea nitrogen level ([2]; 10 mg/kg and 30 mg/kg, 72 h after ischemia-reperfusion): significant trend of decrease
Apoptotic cell rate in renal tissue [2, 4]: significantly decreased
Expression level of apoptotic factor caspase 9 in renal tissues [2, 4]: significantly decreased
Creatinine values ([2]; 10 mg/kg, 24 h, 48 h and 72 h after ischemia-reperfusion, versus model control, P<0.05-0.01): significantly decreased
Degree of renal lesions (tubular dilatation, necrosis, glomerular atrophy, inflammatory cell infiltration etc.) ([2]; 10 mg/kg, versus model control): significantly reduced
Creatinine clearance rate ([2]; 10 mg/kg, versus model control, P<0.05): statistically significant
Creatinine values ([2]; 30 mg/kg, 24 h and 72 h after reperfusion, P<0.05): significantly decreased
Degree of renal lesions (tubular dilatation, necrosis, glomerular atrophy, inflammatory cell infiltration etc.) ([2]; 30 mg/kg, versus model control): tendency to reduce the above lesions
Effect on body weight ([2]; 3, 10, and 30 mg/kg gavage, 72 h after reperfusion, versus model control): no significant effect
